Tests used:
Assay type in all cases: cell-based
human TLR7 = biological target: T1, human TLR7 (Homo sapiens, UniProt Q9NYK1); experiment: TLR7 inhibition reporter assay (HEK-Blue cells, SEAP reporter, gardiquimod stimulation); details: HEK-Blue cells overexpressing human TLR7, SEAP reporter, gardiquimod 7.5 μM
T1 construct: host or cells: HEK-Blue cells (HEK293-derived reporter line)
T1 sequence (Q9NYK1 27-1049): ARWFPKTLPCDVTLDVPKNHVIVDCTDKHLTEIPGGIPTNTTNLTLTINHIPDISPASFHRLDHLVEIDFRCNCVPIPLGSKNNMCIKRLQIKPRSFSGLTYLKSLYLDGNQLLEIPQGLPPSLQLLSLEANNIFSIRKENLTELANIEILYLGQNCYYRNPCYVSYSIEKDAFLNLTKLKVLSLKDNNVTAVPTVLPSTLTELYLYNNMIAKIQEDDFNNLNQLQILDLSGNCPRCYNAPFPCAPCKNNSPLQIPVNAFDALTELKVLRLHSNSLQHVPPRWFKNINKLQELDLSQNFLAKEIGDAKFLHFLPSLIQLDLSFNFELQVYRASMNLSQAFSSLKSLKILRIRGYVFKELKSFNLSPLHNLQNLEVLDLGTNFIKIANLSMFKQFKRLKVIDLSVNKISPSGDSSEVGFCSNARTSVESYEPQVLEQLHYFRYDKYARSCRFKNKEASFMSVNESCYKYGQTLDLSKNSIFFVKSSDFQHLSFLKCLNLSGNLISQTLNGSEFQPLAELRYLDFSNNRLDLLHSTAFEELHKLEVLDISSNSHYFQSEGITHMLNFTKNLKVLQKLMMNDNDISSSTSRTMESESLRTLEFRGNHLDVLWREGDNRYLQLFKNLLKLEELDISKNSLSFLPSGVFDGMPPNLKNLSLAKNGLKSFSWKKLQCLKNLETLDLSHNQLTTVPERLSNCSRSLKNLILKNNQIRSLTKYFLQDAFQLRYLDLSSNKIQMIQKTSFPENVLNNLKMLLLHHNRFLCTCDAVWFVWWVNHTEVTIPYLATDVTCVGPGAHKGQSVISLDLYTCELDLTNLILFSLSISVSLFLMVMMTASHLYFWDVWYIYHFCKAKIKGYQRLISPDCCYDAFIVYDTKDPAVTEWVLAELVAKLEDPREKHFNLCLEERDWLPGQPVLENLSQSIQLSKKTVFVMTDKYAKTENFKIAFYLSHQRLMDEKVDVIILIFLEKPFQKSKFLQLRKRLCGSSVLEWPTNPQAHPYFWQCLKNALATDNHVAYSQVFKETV
Outline: (§1)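 Percent inhibition of agonist-induced SEAP secretion in HEK-Blue cells after 22 h at 37 °C. Stimuli: 7.5 μM gardiquimod, 15.9 μM R848, 5 nM ODN2006 for TLR7, TLR8 and TLR9, added after 30 min compound exposure over a 0.05 nM–50 μM range.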

human TLR8 = biological target: T2, human TLR8 (Homo sapiens, UniProt Q9NR97); experiment: TLR8 inhibition reporter assay (HEK-Blue cells, SEAP reporter, R848 stimulation); details: HEK-Blue cells overexpressing human TLR8, SEAP reporter, R848 15.9 μM
T2 construct: host or cells: HEK-Blue cells (HEK293-derived reporter line)
T2 sequence (Q9NR97 27-1041): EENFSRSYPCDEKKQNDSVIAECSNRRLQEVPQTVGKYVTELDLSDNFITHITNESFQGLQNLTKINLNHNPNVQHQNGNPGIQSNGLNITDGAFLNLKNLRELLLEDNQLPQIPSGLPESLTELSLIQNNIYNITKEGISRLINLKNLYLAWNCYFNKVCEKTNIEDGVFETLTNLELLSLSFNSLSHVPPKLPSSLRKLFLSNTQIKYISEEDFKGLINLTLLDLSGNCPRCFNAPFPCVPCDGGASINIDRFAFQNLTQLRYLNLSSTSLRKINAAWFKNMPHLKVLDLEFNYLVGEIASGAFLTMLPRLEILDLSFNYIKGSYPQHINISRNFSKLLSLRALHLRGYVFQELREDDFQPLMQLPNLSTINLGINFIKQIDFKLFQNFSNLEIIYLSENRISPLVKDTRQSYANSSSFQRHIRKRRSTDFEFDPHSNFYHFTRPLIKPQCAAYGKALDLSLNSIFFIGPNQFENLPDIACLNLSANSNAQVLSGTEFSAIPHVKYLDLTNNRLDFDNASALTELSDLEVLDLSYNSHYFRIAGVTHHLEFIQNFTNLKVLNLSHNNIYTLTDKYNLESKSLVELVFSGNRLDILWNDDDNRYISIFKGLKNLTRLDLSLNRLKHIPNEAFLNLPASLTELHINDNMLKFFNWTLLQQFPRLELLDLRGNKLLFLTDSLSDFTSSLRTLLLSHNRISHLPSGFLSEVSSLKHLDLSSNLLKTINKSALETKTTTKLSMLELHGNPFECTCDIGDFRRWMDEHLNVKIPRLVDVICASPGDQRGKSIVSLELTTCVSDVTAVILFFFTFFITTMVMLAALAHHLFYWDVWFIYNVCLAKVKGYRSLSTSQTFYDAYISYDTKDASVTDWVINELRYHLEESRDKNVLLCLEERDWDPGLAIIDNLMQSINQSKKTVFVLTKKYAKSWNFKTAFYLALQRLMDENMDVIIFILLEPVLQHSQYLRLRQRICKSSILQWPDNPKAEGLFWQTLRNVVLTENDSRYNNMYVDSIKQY
Outline: as §1

human TLR9 = biological target: T3, human TLR9 (Homo sapiens, UniProt Q9NR96); experiment: TLR9 inhibition reporter assay (HEK-Blue cells, SEAP reporter, ODN2006 stimulation); details: HEK-Blue cells overexpressing human TLR9, SEAP reporter, ODN2006 5 nM
T3 construct: host or cells: HEK-Blue cells (HEK293-derived reporter line)
T3 sequence (Q9NR96 26-1032): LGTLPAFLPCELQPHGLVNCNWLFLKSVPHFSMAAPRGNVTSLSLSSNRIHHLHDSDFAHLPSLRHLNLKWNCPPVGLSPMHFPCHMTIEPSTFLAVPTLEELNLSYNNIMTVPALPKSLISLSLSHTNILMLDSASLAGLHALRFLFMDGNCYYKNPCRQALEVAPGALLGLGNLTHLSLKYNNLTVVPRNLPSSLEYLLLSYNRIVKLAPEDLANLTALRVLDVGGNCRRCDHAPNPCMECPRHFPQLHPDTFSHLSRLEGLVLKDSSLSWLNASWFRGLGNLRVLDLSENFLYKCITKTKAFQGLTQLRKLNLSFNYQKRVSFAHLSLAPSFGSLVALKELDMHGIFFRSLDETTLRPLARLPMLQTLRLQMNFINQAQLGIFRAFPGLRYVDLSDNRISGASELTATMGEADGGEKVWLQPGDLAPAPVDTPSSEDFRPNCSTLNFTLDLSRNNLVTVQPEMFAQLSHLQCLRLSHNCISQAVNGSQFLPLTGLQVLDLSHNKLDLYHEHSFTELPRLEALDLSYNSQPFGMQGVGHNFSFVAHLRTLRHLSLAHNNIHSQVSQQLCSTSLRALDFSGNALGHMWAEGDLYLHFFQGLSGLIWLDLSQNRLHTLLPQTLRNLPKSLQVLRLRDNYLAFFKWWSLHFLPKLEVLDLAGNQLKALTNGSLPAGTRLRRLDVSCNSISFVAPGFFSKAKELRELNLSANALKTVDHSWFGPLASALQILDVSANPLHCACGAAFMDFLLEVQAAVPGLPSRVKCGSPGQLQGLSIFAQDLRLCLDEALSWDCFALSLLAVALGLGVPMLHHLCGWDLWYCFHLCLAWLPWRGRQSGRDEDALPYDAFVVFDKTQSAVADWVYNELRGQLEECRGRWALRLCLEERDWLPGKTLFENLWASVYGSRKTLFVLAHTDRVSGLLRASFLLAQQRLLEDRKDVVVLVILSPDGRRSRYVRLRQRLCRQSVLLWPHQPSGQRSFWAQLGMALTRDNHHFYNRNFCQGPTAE
Outline: as §1

Row | Structure (SMILES) | IC50 (human TLR7) [nM] | IC50 (human TLR8) [nM] | IC50 (human TLR9) [nM]
1 | Cc1c(-c2ccnc3cn[nH]c23)[nH]c2ccc(C3CCNCC3)cc12 [Example 55, 7-(3-methyl-5-(piperidin-4-yl)-1H-indol-2-yl)-1H-pyrazolo [4,3-b]pyridine] | 100 to 1000 | 1000 to 50000 | 1000 to 50000
2 | Cc1cc(-c2[nH]c3ccc(C4CCNCC4)cc3c2C(C)C)cn2cc(C(=O)NCC(C)(C)O)nc12 [Example 270, N-(2-hydroxy-2-methylpropyl)-6-(3-isopropyl-5-(piperidin-4-yl)-1H-indol-2-yl)-8-methylimidazo[1,2-a]pyridine-2-carboxamide] | 100 to 1000 | 100 to 1000 | 1000 to 50000
3 | CC(C)c1c(-c2ccnc3[nH]ncc23)[nH]c2ccc(C3CCNC(=O)C3)cc12 (stereo not drawn) [Example 248, 4-(3-Isopropyl-2-(1H-pyrazolo[3,4-b]pyridin-4-yl)-1H-indol-5-yl)piperidin-2-one] | 100 to 1000 | < 100 | > 50000
4 | CC(C)c1c(-c2ccc(C#N)c3[nH]ncc23)[nH]c2ccc(C3CCNCC3)cc12 [Example 235, 4-(3-isopropyl-5-(piperidin-4-yl)-1H-indol-2-yl)-1H-indazole-7-carbonitrile] | 1000 to 50000 | 1000 to 50000 | 1000 to 50000
5 | CNC(=O)CN1CCC(c2ccc3[nH]c(-c4ccc(C)n5nc(C)nc45)c(C(C)C)c3c2)CC1 [Example 383, 2-(4-(2-(2,5-dimethyl-[1,2,4]triazolo[1,5-a]pyridin-8-yl)-3-isopropyl-1H-indol-5-yl)piperidin-1-yl)-N-methylacetamide] | 1000 to 50000 | 100 to 1000 | 1000 to 50000
6 | CC(C)c1c(-c2ccnc3[nH]ncc23)[nH]c2ccc(C3CCN(Cc4ccccc4OCCCN(C)C)CC3)cc12 [Example 921, 3-(2-((4-(3-isopropyl-2-(1H-pyrazolo[3,4-b]pyridin-4-yl)-1H-indol-5-yl)piperidin-1-yl)methyl)phenoxy)-N,N-dimethylpropan-1-amine] | 100 to 1000 | < 100 | 100 to 1000
7 | CC(C)c1c(-c2ccnc3c2CC(=O)N3)[nH]c2ccc(C3CCNCC3)cc12 [Example 69, 4-(3-isopropyl-5-(piperidin-4-yl)-1H-indol-2-yl)-1,3-dihydro-2H-pyrrolo[2,3-b]pyridin-2-one] | 100 to 1000 | < 100 | 100 to 1000
8 | CNC(=O)CN1CCC(c2ccc3[nH]c(-c4ccc5nccn5c4)c(C(C)C)c3c2)CC1 [Example 403, 2-(4-(2-(imidazo[1,2-a]pyridin-6-yl)-3-isopropyl-1H-indol-5-yl)piperidin-1-yl)-N-methylacetamide] | < 100 | < 100 | 1000 to 50000
9 | CNCC(=O)N1CCC(c2ccc3[nH]c(-c4cc(OC)n5ncnc5c4)c(C(C)C)c3c2)CC1 [Example 553, 1-(4-(3-isopropyl-2-(5-methoxy-[1,2,4]triazolo[1,5-a]pyridin-7-yl)-1H-indol-5-yl)piperidin-1-yl)-2-(methylamino)ethan-1-one] | < 100 | < 100 | 100 to 1000

Now from value to compound:

Row | IC50 (human TLR7) [nM] | IC50 (human TLR8) [nM] | IC50 (human TLR9) [nM] | Structure (SMILES)
10 | < 100 | 100 to 1000 | 1000 to 50000 | CC(C)c1c(-c2ccn3nncc3c2)[nH]c2ccc(C3CCN(C4COC4)CC3)cc12 [Example 735, 5-(3-isopropyl-5-(1-(oxetan-3-yl)piperidin-4-yl)-1H-indol-2-yl)-[1,2,3]triazolo[1,5-a]pyridine]
11 | < 100 | < 100 | 1000 to 50000 | CC(C)c1c(-c2ccnc3[nH]ncc23)[nH]c2ccc(C3CCN(Cc4cnc(N)s4)CC3)cc12 [Example 926, 5-((4-(3-isopropyl-2-(1H-pyrazolo[3,4-b]pyridin-4-yl)-1H-indol-5-yl)piperidin-1-yl)methyl)thiazol-2-amine]
12 | < 100 | 1000 to 50000 | 100 to 1000 | Cc1cn2cc(-c3[nH]c4ccc(C5CCNCC5)cc4c3C(C)C)cnc2n1 [Example 159, 6-(3-isopropyl-5-(piperidin-4-yl)-1H-indol-2-yl)-2-methylimidazo[1,2-a]pyrimidine]
13 | < 100 | < 100 | < 100 | CCc1c(-c2ccnc3[nH]ccc23)[nH]c2ccc(C3CCN(C4CCN(C)CC4)CC3)cc12 [Example 839, 4-(3-ethyl-5-(1′-methyl-[1,4′-bipiperidin]-4-yl)-1H-indol-2-yl)-1H-pyrrolo[2,3-b]pyridine]
14 | < 100 | < 100 | 1000 to 50000 | Cc1cc(-c2[nH]c3ccc(C4CCNCC4)cc3c2C(C)C)nc2scnc12 [Example 101, 5-(3-isopropyl-5-(piperidin-4-yl)-1H-indol-2-yl)-7-methylthiazolo[5,4-b]pyridine]
15 | < 100 | < 100 | 1000 to 50000 | CC(C)c1c(-c2cn(C)c3ncncc23)[nH]c2ccc(C3CCN(C(=O)CN(C)C)CC3)cc12 [Example 456, 2-(dimethylamino)-1-(4-(3-isopropyl-2-(7-methyl-7H-pyrrolo[2,3-d]pyrimidin-5-yl)-1H-indol-5-yl)piperidin-1-yl)ethan-1-one]

Reference: patent US11739098B2 (BRISTOL-MYERS SQUIBB COMPANY, priority 2017, dated 2023)
